Results published in patent publication US11576900B2, “Compositions and methods of reducing serum cholesterol and PCSK9” (CASE WESTERN RESERVE UNIVERSITY, priority 2017, dated 2023).

Key:
AKR1A1 = biological target: T1, AKR1A1 (Mus musculus, UniProt Q9JII6); assay: SNO-CoA reductase activity in liver lysate of C57BL6J mice after in-diet imirestat; assay type: in vivo; settings: C57BL6J 24 week old male mice, 4 weeks in-diet Imirestat; FIG. 9
T1 construct: For AKR1A1 liver activity following in-diet imirestat treatment, frozen liver tissue was dounce homogenized; from tissue; host or cells: liver of C57BL6/J mice (clarified lysate)
T1 sequence (Q9JII6 1-325): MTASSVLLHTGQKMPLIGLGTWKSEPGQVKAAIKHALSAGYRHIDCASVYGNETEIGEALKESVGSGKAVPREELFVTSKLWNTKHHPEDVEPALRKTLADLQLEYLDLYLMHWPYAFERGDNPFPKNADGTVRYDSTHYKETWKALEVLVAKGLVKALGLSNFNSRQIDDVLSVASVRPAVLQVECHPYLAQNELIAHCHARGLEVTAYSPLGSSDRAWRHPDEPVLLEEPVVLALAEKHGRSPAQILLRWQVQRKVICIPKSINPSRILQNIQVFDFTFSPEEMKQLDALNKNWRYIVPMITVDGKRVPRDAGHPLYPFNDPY
Description: (§1) AKR1A1^−/− mice were generated by Deltagen, Inc. C57BL6/J and ApoE^−/− mice were purchased from The Jackson Laboratory. CETP-ApoB100 transgenic mice were purchased from Taconic Biosciences. All mice were maintained under a 12-hour light/dark cycle. For imirestat treatment studies, mice were provided control chow or chow containing 0.0125% w/w imirestat (125 mg imirestat/1 kg chow) ad libitum. C57BL6/J and ApoE^−/− mice were provided control chow or imirestat chow for 4 weeks starting at age 20 weeks; CETP-ApoB100 transgenic mice were provided control chow or imirestat chow for 8 weeks starting at age 10 weeks.
Prior to euthanasia, mice were fasted for the indicated length of time. […]
The human AKR1A1 coding sequence was cloned into a pET21b bacterial expression vector. pET21b-AKR1A1 was transformed into Rosetta2(DE3)pLysS E. coli and expression was induced by the addition of 100 μM isopropyl-β-D-1-thiogalactopyranoside at A600nm=0.4. […] Initial rates were calculated using absorbance decrease at 340 nm. IC50 was calculated in GraphPad Prism 7 using non-linear regression analysis. […] Reactions were initiated by the addition of liver lysate and specific activity was calculated from the change in absorbance at 340 nm, protein concentration, and an extinction coefficient of 7.06 mM^−1·cm^−1 (combined for SNO-CoA and NADPH).

[1] = Total serum cholesterol in C57BL6J mice on in-diet imirestat; assay type: in vivo; settings: C57BL6J 24 week old male mice, 4 weeks in-diet Imirestat (0.0125% w/w chow); FIG. 6
Description: as §1
(§2) Prior to euthanasia, mice were fasted for the indicated length of time. […] Collected blood was allowed to coagulate for 20 minutes at room temperature in a pediatric serum separator tube. Serum was separated by centrifugation at 2000 g for 20 minutes at 4° C. […]
(§3) Total serum cholesterol was determined by standard enzymatic assays. For lipoprotein cholesterol quantification, lipoprotein fractions were separated by gel filtration column chromatography. Approximately 70 fractions were collected and cholesterol in each fraction was quantified by standard enzymatic assays. Calibration of the column with purified lipoprotein fractions permitted quantification of cholesterol in various lipoprotein classes. Serum PCSK9 was quantified by solid phase sandwich ELISA.

[2] = Total serum cholesterol in CETP/ApoB100 transgenic mice on in-diet imirestat; assay type: in vivo; settings: CETP/ApoB100 transgenic male mice, FIG. 13
Description: AKR1A1^−/− mice were generated by Deltagen, Inc. C57BL6/J and ApoE^−/− mice were purchased from The Jackson Laboratory. CETP-ApoB100 transgenic mice were purchased from Taconic Biosciences. All mice were maintained under a 12-hour light/dark cycle. For imirestat treatment studies, mice were provided control chow or chow containing 0.0125% w/w imirestat (125 mg imirestat/1 kg chow) ad libitum. […]
as §2, with “C. Serum was stored at −80° C. until analysis. For overnight fasted 12-week-old AKR1A1^−/− mice (FIG. 5), whole blood was provided to University Hospitals' Clinical Laboratory (Cleveland, Ohio) for cholesterol analysis.” for “C.”
as §3

[3] = Total serum cholesterol in ApoE deficient mice on in-diet imirestat; assay type: in vivo; settings: ApoE deficient 24 week old male mice, 4 weeks in-diet Imirestat; FIG. 10
Description: as §1, §2, §3

human AKR1A1 = biological target: T2, human AKR1A1 (Homo sapiens, UniProt P14550); assay: AKR1A1 SNO-CoA reductase activity assay (recombinant enzyme); assay type: biochemical; settings: 200 nM recombinant AKR1A1, 100 μM NADPH, 100 μM SNO-CoA; FIG. 5; read-out: IC50 for inhibition of AKR1A1 SNO-CoA Reductase Activity
T2 construct: His; made in house; host or cells: Rosetta2(DE3)pLysS E. coli
T2 sequence (P14550 1-325): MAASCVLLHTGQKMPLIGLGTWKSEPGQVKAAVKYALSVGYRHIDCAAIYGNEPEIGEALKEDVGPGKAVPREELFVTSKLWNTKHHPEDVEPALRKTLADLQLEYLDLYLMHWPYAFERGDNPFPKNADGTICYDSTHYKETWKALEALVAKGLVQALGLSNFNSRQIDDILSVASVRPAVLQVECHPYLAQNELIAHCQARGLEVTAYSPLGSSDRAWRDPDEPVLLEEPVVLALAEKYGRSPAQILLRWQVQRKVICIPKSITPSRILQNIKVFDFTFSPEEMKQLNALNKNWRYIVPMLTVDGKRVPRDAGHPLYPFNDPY
Description: The human AKR1A1 coding sequence was cloned into a pET21b bacterial expression vector. pET21b-AKR1A1 was transformed into Rosetta2(DE3)pLysS E. coli and expression was induced by the addition of 100 μM isopropyl-β-D-1-thiogalactopyranoside at A600nm=0.4. Bacteria were grown for 4 hours at 25° C. and recombinant His-tagged SCoR was purified via Ni-affinity purification. Triplicate reactions were performed with 200 nM recombinant AKR1A1, 100 μM NADPH, 100 μM SNO-CoA, and increasing concentrations of imirestat dissolved in dimethyl sulfoxide (DMSO). SNO-CoA was prepared by reacting equal volumes of 0.1M CoA in 1M HCl and 0.1M NaNO2 water containing 100 μM EDTA and 100 μM DTPA. Initial rates were calculated using absorbance decrease at 340 nm. IC50 was calculated in GraphPad Prism 7 using non-linear regression analysis. For AKR1A1 liver activity following in-diet imirestat treatment, frozen liver tissue was dounce homogenized (30 dounces) in 50 mM phosphate buffer, pH 7.0 supplemented with 100 μM ethylenediaminetetraacetic acid (EDTA) and diethylenetriamine pentaacetate (DTPA) and 150 mM sodium chloride. […] Reactions were initiated by the addition of liver lysate and specific activity was calculated from the change in absorbance at 340 nm, protein concentration, and an extinction coefficient of 7.06 mM^−1·cm^−1 (combined for SNO-CoA and NADPH).

PCSK9 [4] = assay: Serum PCSK9 levels in C57BL6J mice on in-diet imirestat (ELISA); assay type: in vivo; settings: C57BL6J 24 week old male mice, 4 weeks in-diet Imirestat; FIG. 8
Description: as §1, §2, §3

[5] = Cholesterol fractionation in ApoE deficient mice on in-diet imirestat; assay type: in vivo; settings: ApoE deficient 24 week old male mice, 4 weeks in-diet Imirestat; FIG. 11
Description: as §1, §2, §3

PCSK9 [6] = assay: Serum PCSK9 levels in ApoE deficient mice on in-diet imirestat (ELISA); assay type: in vivo; settings: ApoE deficient 24 week old male mice, 4 weeks in-diet Imirestat; FIG. 12
Description: as §1, §2, §3

[7] = Cholesterol fractionation in C57BL6J mice on in-diet imirestat; assay type: in vivo; settings: C57BL6J 24 week old male mice, 4 weeks in-diet Imirestat; FIG. 7
Description: as §1, §2, §3

SNO-CoA Reductase activity in liver (AKR1A1 liver activity) vs control (AKR1A1): lower AKR1A1 liver activity
IC50 (human AKR1A1): ~120 nM
SMILES: O=C1NC(=O)C2(N1)c1cc(F)ccc1-c1ccc(F)cc12 [Imirestat, 2,7-Difluoro-2′H,5′H-spiro[fluorene-9,4′-imidazolidine]-2′,5′-dione]
total serum cholesterol vs control [1]: lower total serum cholesterol
total serum cholesterol vs control [2]: lower total serum cholesterol
total serum cholesterol vs control [3]: lower total serum cholesterol
serum PCSK9 levels vs control (PCSK9 [4]): lower total serum PCSK9 levels
cholesterol fractionation vs control [5]: reduced total serum cholesterol
serum PCSK9 levels vs control (PCSK9 [6]): lower total serum PCSK9 levels
cholesterol fractionation vs control [7]: reduced total serum cholesterol
